Assay results published in patent US20240285612A1, “COMPOSITIONS COMPRISING AN AGONIST OF 5-HYDROXYTRYPTAMINE (5-HT) RECEPTOR SUBTYPE 3” (LDN Pharma Limited, priority 2021, published 2024).

Assays:
[1] = system: 5-HT receptor 3A (HTR3A), transcript variant 2 mRNA; test: Microarray gene expression of HTR3A transcript variant 2 mRNA in CD3+ lymphocytes treated 4 h; type: cell-based, human
Method: (§1) CD3+ lymphocytes were isolated from the blood of haematologically normal volunteers. Cells placed into […] flasks at a concentration of 1×10^6/ml, and left to equilibrate in an incubator with a humidified atmosphere and 5% CO2 in air at 37° C. […] RNA extraction was performed using Trizol according to standard procedures, before being processed for microarray analysis according to the standard methodologies. Briefly, equal amounts of biotinylated cRNA was hybridised to the Illumina human HT12-v3 arrays for 18 h and subsequently processed according to manufacturer's instructions before scanning on an Illumina BeadArray Reader. The image data were processed using default values in GenomeStudio v2009.1 with imputation of missing data, before loading onto GeneSpring v9.0 for data normalisation and filtering. Data analyses were performed using Excel software, and the ratio of gene expression signals in treated vs. untreated calculated.

[2] = system: 5-HT receptor 3A (HTR3A), transcript variant 1 mRNA; test: Microarray gene expression of HTR3A transcript variant 1 mRNA in CD3+ lymphocytes treated 4 h; type: cell-based, human; details: probe ILMN_1681492, HTR3A transcript variant 1, low dose naltrexone 10 nM
Method: as §1

Compound: O=C1CC[C@@]2(O)[C@H]3Cc4ccc(O)c5c4[C@@]2(CCN3CC2CC2)[C@H]1O5 [NTX, morphinan-6-one, 17-(cyclopropylmethyl)-4,5-epoxy-3,14-dihydroxy-(5a)]
- levels of mRNA for one or more of 5-HT3 receptor proteins ([1]; both high dose (10 uM) and low dose (10 nM) naltrexone, result in words): selectively increase the levels of mRNA
- gene expression signal LDN ([1]; probe ILMN_2371079, HTR3A transcript variant 2, low dose naltrexone 10 nM, 4 h, CD3+ lymphocytes): 124.70
- gene expression signal NTX ([1]; probe ILMN_2371079, HTR3A transcript variant 2, naltrexone 10 uM, 4 h, CD3+ lymphocytes): 151.75
- gene expression signal LDN [2]: 94.00
